# ChEMBL document CHEMBL1201862, “PubChem BioAssay data set” (2004)
#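 96-well plates; 48 h exposure; 5 concentrations. Endpoints by linear interpolation between flanking doses. Not reached: highest tested concentration assigned. GI50 is the concentration that inhibits growth by half.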 Active and inactive are the calls of the source. Cut-off read from the data, not from the text of the source: active = GI50 up to about 1.1 µM and inactive = higher.
# What was measured:
# Experiment in all cases: growth of human tumour cells (NCI), 48 h
# OVCAR-4 = tested on: OVCAR-4
# KM12 = tested on: KM12
# IGROV-1 = tested on: IGROV-1
# SF-295 = tested on: SF-295
# COLO 205 = tested on: COLO 205
# SF-539 = tested on: SF-539
# U-251 = tested on: U-251
# SR = tested on: SR
# SK-MEL-28 = tested on: SK-MEL-28
# ACHN = tested on: ACHN
# TK-10 = tested on: TK-10
# HOP-92 = tested on: HOP-92
# SNB-78 = tested on: SNB-78
# M19-MEL = tested on: M19-MEL
# DLD-1 = tested on: DLD-1
# OVCAR-8 = tested on: OVCAR-8
# NCI-H226 = tested on: NCI-H226
# K562 = tested on: K562
# SN12C = tested on: SN12C
# HCT-15 = tested on: HCT-15
# MOLT-4 = tested on: MOLT-4
# SNB-19 = tested on: SNB-19
# OVCAR-3 = tested on: OVCAR-3
# RPMI-8226 = tested on: RPMI-8226
# HT-29 = tested on: HT-29
# HCT-116 = tested on: HCT-116
# CAKI-1 = tested on: CAKI-1
# 786-0 = tested on: 786-0
# Malme-3M = tested on: Malme-3M
# A498 = tested on: A498
# OVCAR-5 = tested on: OVCAR-5
# UACC-62 = tested on: UACC-62
# KM-20L2 = tested on: KM-20L2
# NCI-H522 = tested on: NCI-H522
# CCRF-CEM = tested on: CCRF-CEM
# SK-OV-3 = tested on: SK-OV-3
# HOP-62 = tested on: HOP-62
# SW-620 = tested on: SW-620
# DMS-273 = tested on: DMS-273
# XF498 = tested on: XF498
# UO-31 = tested on: UO-31
# EKVX = tested on: EKVX
# LXFL 529 = tested on: LXFL 529
# SF-268 = tested on: SF-268
# RXF 631 = tested on: RXF 631
# SNB-75 = tested on: SNB-75
# SK-MEL-5 = tested on: SK-MEL-5
# LOX IMVI = tested on: LOX IMVI
# HL-60 = tested on: HL-60
# HOP-18 = tested on: HOP-18
# SK-MEL-2 = tested on: SK-MEL-2
# NCI-H460 = tested on: NCI-H460
# NCI-H23 = tested on: NCI-H23
# M14 = tested on: M14
# UACC-257 = tested on: UACC-257
# A549 = tested on: A549
# RXF 393 = tested on: RXF 393
# HCC 2998 = tested on: HCC 2998
# DMS-114 = tested on: DMS-114
structure (smiles),measurement,setting,value
CC1=CC(=O)NP(=O)(C23CC4CC(CC(C4)C2)C3)N1 (stereo not drawn),GI50,OVCAR-4,> 100 µM (inactive)
same,GI50,KM12,> 100 µM (inactive)
same,GI50,IGROV-1,> 100 µM (inactive)
same,GI50,SF-295,> 100 µM (inactive)
same,GI50,COLO 205,> 100 µM (inactive)
same,GI50,SF-539,> 100 µM (inactive)
same,GI50,U-251,> 100 µM (inactive)
same,GI50,SR,> 100 µM (inactive)
same,GI50,SK-MEL-28,> 100 µM (inactive)
same,GI50,ACHN,> 100 µM (inactive)
same,GI50,TK-10,> 100 µM (inactive)
same,GI50,HOP-92,> 100 µM (inactive)
same,GI50,SNB-78,> 100 µM (inactive)
same,GI50,M19-MEL,> 100 µM (inactive)
same,GI50,DLD-1,> 100 µM (inactive)
same,GI50,OVCAR-8,> 100 µM (inactive)
same,GI50,NCI-H226,> 100 µM (inactive)
same,GI50,K562,> 100 µM (inactive)
same,GI50,SN12C,> 100 µM (inactive)
same,GI50,HCT-15,> 100 µM
same,GI50,MOLT-4,> 100 µM (inactive)
same,GI50,SNB-19,> 100 µM (inactive)
same,GI50,OVCAR-3,> 100 µM (inactive)
same,GI50,RPMI-8226,> 100 µM (inactive)
same,GI50,HT-29,> 100 µM (inactive)
same,GI50,HCT-116,> 100 µM (inactive)
same,GI50,CAKI-1,> 100 µM (inactive)
same,GI50,786-0,> 100 µM (inactive)
same,GI50,Malme-3M,> 100 µM (inactive)
same,GI50,A498,> 100 µM (inactive)
same,GI50,OVCAR-5,> 100 µM (inactive)
same,GI50,UACC-62,> 100 µM (inactive)
same,GI50,KM-20L2,> 100 µM (inactive)
same,GI50,NCI-H522,> 100 µM (inactive)
same,GI50,CCRF-CEM,> 100 µM (inactive)
same,GI50,SK-OV-3,> 100 µM (inactive)
same,GI50,HOP-62,> 100 µM (inactive)
same,GI50,SW-620,> 100 µM (inactive)
same,GI50,DMS-273,> 100 µM (inactive)
same,GI50,XF498,> 100 µM (inactive)
same,GI50,UO-31,> 100 µM (inactive)
same,GI50,EKVX,> 100 µM (inactive)
same,GI50,LXFL 529,> 100 µM (inactive)
same,GI50,SF-268,> 100 µM (inactive)
same,GI50,RXF 631,> 100 µM (inactive)
same,GI50,SNB-75,> 100 µM (inactive)
same,GI50,SK-MEL-5,> 100 µM (inactive)
same,GI50,LOX IMVI,> 100 µM (inactive)
same,GI50,HL-60,> 100 µM (inactive)
same,GI50,HOP-18,> 100 µM (inactive)
same,GI50,SK-MEL-2,> 100 µM (inactive)
same,GI50,NCI-H460,> 100 µM (inactive)
same,GI50,NCI-H23,> 100 µM (inactive)
same,GI50,M14,> 100 µM (inactive)
same,GI50,UACC-257,> 100 µM (inactive)
CCCCCCCCCCCCCC(=O)OCC1OC(=O)CC1O (stereo not drawn),GI50,OVCAR-4,> 100 µM (inactive)
same,GI50,KM12,81.5 µM (inactive)
same,GI50,IGROV-1,88.5 µM (inactive)
same,GI50,SF-295,35.2 µM (inactive)
same,GI50,COLO 205,> 100 µM (inactive)
same,GI50,SF-539,> 100 µM (inactive)
same,GI50,A549,> 100 µM (inactive)
same,GI50,U-251,> 100 µM (inactive)
same,GI50,ACHN,> 100 µM (inactive)
same,GI50,TK-10,> 100 µM (inactive)
same,GI50,HOP-92,7.36 µM (inactive)
same,GI50,SNB-78,56.1 µM (inactive)
same,GI50,DLD-1,34.8 µM (inactive)
same,GI50,OVCAR-8,> 100 µM (inactive)
same,GI50,K562,24.9 µM (inactive)
same,GI50,SN12C,> 100 µM (inactive)
same,GI50,HCT-15,25.4 µM
same,GI50,MOLT-4,35.2 µM (inactive)
same,GI50,RXF 393,> 100 µM (inactive)
same,GI50,SNB-19,> 100 µM (inactive)
same,GI50,OVCAR-3,> 100 µM (inactive)
same,GI50,RPMI-8226,49.8 µM (inactive)
same,GI50,HT-29,94.4 µM (inactive)
same,GI50,HCT-116,44.2 µM (inactive)
same,GI50,CAKI-1,43 µM (inactive)
same,GI50,786-0,> 100 µM (inactive)
same,GI50,Malme-3M,> 100 µM (inactive)
same,GI50,A498,> 100 µM (inactive)
same,GI50,OVCAR-5,> 100 µM (inactive)
same,GI50,UACC-62,94 µM (inactive)
same,GI50,KM-20L2,> 100 µM (inactive)
same,GI50,HCC 2998,> 100 µM (inactive)
same,GI50,CCRF-CEM,42 µM (inactive)
same,GI50,SK-OV-3,> 100 µM (inactive)
same,GI50,HOP-62,> 100 µM (inactive)
same,GI50,SW-620,> 100 µM (inactive)
same,GI50,DMS-273,> 100 µM (inactive)
same,GI50,XF498,> 100 µM (inactive)
same,GI50,UO-31,20.2 µM (inactive)
same,GI50,EKVX,> 100 µM (inactive)
same,GI50,LXFL 529,> 100 µM (inactive)
same,GI50,SF-268,> 100 µM (inactive)
same,GI50,RXF 631,> 100 µM (inactive)
same,GI50,SNB-75,> 100 µM (inactive)
same,GI50,SK-MEL-5,> 100 µM (inactive)
same,GI50,LOX IMVI,51.5 µM (inactive)
same,GI50,HL-60,43 µM (inactive)
same,GI50,HOP-18,0.437 µM (active)
same,GI50,SK-MEL-2,> 100 µM (inactive)
same,GI50,DMS-114,49.4 µM (inactive)
same,GI50,NCI-H460,> 100 µM (inactive)
same,GI50,NCI-H23,> 100 µM (inactive)
same,GI50,M14,21.9 µM (inactive)
same,GI50,UACC-257,> 100 µM (inactive)
O=c1/c(=C/c2ccccc2F)sc2nc3ccccc3n12,GI50,OVCAR-4,> 100 µM (inactive)
same,GI50,IGROV-1,> 100 µM (inactive)
same,GI50,SF-295,> 100 µM (inactive)
same,GI50,SF-539,74.3 µM (inactive)
same,GI50,A549,> 100 µM (inactive)
same,GI50,U-251,38.7 µM (inactive)
same,GI50,SR,38.3 µM (inactive)
same,GI50,SK-MEL-28,> 100 µM (inactive)
same,GI50,ACHN,> 100 µM (inactive)
same,GI50,TK-10,> 100 µM (inactive)
same,GI50,HOP-92,> 100 µM (inactive)
same,GI50,SNB-78,> 100 µM (inactive)
same,GI50,M19-MEL,> 100 µM (inactive)
same,GI50,DLD-1,> 100 µM (inactive)
same,GI50,OVCAR-8,> 100 µM (inactive)
same,GI50,NCI-H226,> 100 µM (inactive)
same,GI50,K562,> 100 µM (inactive)
same,GI50,SN12C,> 100 µM (inactive)
same,GI50,HCT-15,> 100 µM
same,GI50,MOLT-4,> 100 µM (inactive)
same,GI50,RXF 393,> 100 µM (inactive)
same,GI50,SNB-19,> 100 µM (inactive)
same,GI50,OVCAR-3,> 100 µM (inactive)
same,GI50,RPMI-8226,> 100 µM (inactive)
same,GI50,HT-29,> 100 µM (inactive)
same,GI50,HCT-116,> 100 µM (inactive)
same,GI50,CAKI-1,> 100 µM (inactive)
same,GI50,786-0,> 100 µM (inactive)
same,GI50,Malme-3M,> 100 µM (inactive)
same,GI50,A498,> 100 µM (inactive)
same,GI50,OVCAR-5,> 100 µM (inactive)
same,GI50,UACC-62,> 100 µM (inactive)
same,GI50,KM-20L2,> 100 µM (inactive)
same,GI50,NCI-H522,92.7 µM (inactive)
same,GI50,HCC 2998,> 100 µM (inactive)
same,GI50,CCRF-CEM,> 100 µM (inactive)
same,GI50,SW-620,> 100 µM (inactive)
same,GI50,DMS-273,> 100 µM (inactive)
same,GI50,XF498,> 100 µM (inactive)
same,GI50,UO-31,> 100 µM (inactive)
same,GI50,EKVX,> 100 µM (inactive)
same,GI50,LXFL 529,88.3 µM (inactive)
same,GI50,SF-268,61.5 µM (inactive)
same,GI50,RXF 631,> 100 µM (inactive)
same,GI50,SNB-75,57.4 µM (inactive)
same,GI50,SK-MEL-5,> 100 µM (inactive)
same,GI50,LOX IMVI,91 µM (inactive)
same,GI50,HL-60,> 100 µM (inactive)
same,GI50,SK-MEL-2,> 100 µM (inactive)
same,GI50,DMS-114,67.3 µM (inactive)
same,GI50,NCI-H460,> 100 µM (inactive)
same,GI50,NCI-H23,> 100 µM (inactive)
same,GI50,M14,> 100 µM (inactive)
same,GI50,UACC-257,> 100 µM (inactive)
